# Laboratory results from patent US20230002352A1, “SULFONAMIDE DERIVATIVES AS CTPS1 INHIBITORS” (Step Pharma S.A.S., priority 2019, published 2023).
# Like-named read-outs stand apart in the source and are kept apart here.
# Target: T1, human CTPS1 (Homo sapiens, UniProt P17812)
# T1 construct: purchased Proteros biostructures GmbH
# T1 sequence (P17812 1-591): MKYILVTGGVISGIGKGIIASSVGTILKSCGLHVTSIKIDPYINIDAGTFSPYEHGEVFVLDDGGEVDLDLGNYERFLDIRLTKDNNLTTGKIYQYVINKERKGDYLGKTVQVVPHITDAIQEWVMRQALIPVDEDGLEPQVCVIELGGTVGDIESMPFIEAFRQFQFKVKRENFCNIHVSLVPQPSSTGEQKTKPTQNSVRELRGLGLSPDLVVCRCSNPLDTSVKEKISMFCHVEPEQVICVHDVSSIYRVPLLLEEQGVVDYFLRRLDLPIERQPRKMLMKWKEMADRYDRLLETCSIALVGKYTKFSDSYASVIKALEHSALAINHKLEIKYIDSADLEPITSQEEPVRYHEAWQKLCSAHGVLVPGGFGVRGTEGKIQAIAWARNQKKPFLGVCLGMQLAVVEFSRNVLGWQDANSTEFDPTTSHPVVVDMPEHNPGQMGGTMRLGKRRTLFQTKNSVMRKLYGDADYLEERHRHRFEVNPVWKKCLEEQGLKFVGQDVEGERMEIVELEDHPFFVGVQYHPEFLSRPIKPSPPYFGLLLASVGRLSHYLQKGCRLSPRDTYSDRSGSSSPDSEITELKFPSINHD
# Assay: Human CTPS1 enzyme inhibition (ADP-Glo Max assay)
# Type: biochemical
# Conditions: ADP-Glo Max assay, read-out: CTPS1 (Human CTPS1 Enzyme Inhibition data grouped by potency range, IC50)
# Experimental: Biological Example 1—Human CTPS1 Enzyme Inhibition
# The enzyme inhibitory activities of compounds invented against the target of interest were determined using the ADP-Glo™ Max assay (Promega, UK). Assays for human CTPS1 were performed in 1× assay buffer containing 50 mM Tris, 10 mM MgCl2, 0.01% Tween-20, pH to 8.0 accordingly. Finally, immediately before use, L-cysteine was added to the 1× assay buffer to a final concentration of 2 mM. All reagents are from Sigma-Aldrich unless specified otherwise. Human full length active C-terminal FLAG-Hiss-tag CTPS1 (UniProtKB-P17812, CTPS[1-591]-[…]) was obtained from Proteros biostructures GmbH.
# 3× human CTPS1 protein was prepared in 1× assay buffer to the final working protein concentration required for the reaction. A 2 uL volume per well of 3× human CTPS1 protein was mixed with 2 uL per well of 3× test compound (compound prepared in 1× assay buffer to an appropriate final 3× compound concentration respective to the concentration response curve designed for the compounds under test) for 10 minutes at 25° C. The enzymatic reaction was then initiated by addition of a 2 uL per well volume of a pre-mixed substrate mix (UltraPure ATP from ADP-Glo™ Max kit (0.31 mM), GTP (0.034 mM), UTP (0.48 mM) and L-glutamine (0.186 mM)) and the mixture was incubated for an appropriate amount of time within the determined linear phase of the reaction at 25° C. under sealed plate conditions with constant agitation at 500 revolutions per minute (rpm). ADP-Glo™ Max reagent was added for 60 minutes (6 μL per well) and subsequently ADP-Glo™ Max development reagent was added for 60 minutes (12 uL per well) prior to signal detection in a microplate reader (EnVision® Multilabel Reader, Perkin Elmer). Following each reagent addition over the course of the assay, assay plates were pulse centrifuged for 30 seconds at 500 rpm.
# In all cases, the enzyme converts ATP to ADP and the ADP-Glo™ Max reagent subsequently depletes any remaining endogenous ATP in the reaction system. The ADP-Glo™ Max detection reagent converts the ADP that has been enzymatically produced back into ATP and using ATP as a substrate together with luciferin for the enzyme luciferase, light is generated which produces a detectable luminescence. […] The percentage inhibition produced by each concentration of compound was calculated using the equation shown below: […]
# Percentage inhibition was then plotted against compound concentration, and the 50% inhibitory concentration (IC50) was determined from the resultant concentration-response curve.
SMILES,IC50 (Table 23),IC50 (Table 24)
CCOc1cncc(-c2ccc(NC(=O)C(C)(C)c3ccnc(NS(=O)(=O)C4CC4)n3)c(OC)c2)n1 [Example P49],≤ 100 nM,–
CCOc1cncc(-c2ccc(NC(=O)C3(c4ccnc(NS(C)(=O)=O)n4)CCN(C(=O)OC(C)(C)C)CC3)nc2)n1 [Example P142],100 to 1000 nM,–
Cc1cc(-c2cncc(C(F)(F)F)n2)ccc1NC(=O)C(C)(C)c1ccnc(NS(C)(=O)=O)n1 [Example P79],100 to 1000 nM,–
CN(C)c1cncc(-c2ccc(NC(=O)C(C)(C)c3ccnc(NS(=O)(=O)C4CC4)n3)cc2)n1 [Example P133],1000 to 10000 nM,–
CCOc1cncc(-c2cnc(NC(=O)C(C)(C)c3ccnc(NS(C)(=O)=O)n3)c(F)c2)n1 [Example P75],100 to 1000 nM,–
CCOc1cncc(-c2ccc(NC(=O)C(C)(C)c3cccc(NS(=O)(=O)C4CC4)n3)cc2)c1 [Example P178],1000 to 10000 nM,–
CCOc1cncc(-c2ccc(NC(=O)C3(c4ccnc(NS(=O)(=O)C5CC5)n4)CCN(C(=O)OC(C)(C)C)CC3)nc2)n1 [Example P139],100 to 1000 nM,–
CCOc1cncc(-c2ccc(NC(=O)C(C)(CCOC)c3ccnc(NS(C)(=O)=O)n3)nc2)n1 (centres unmarked) [Example P147],100 to 1000 nM,–
O=C(Cc1ccnc(NS(=O)(=O)C2CC2)n1)Nc1ccc(-c2ccccc2)cc1 [Example P17],1000 to 10000 nM,–
CC(C)(C(=O)Nc1ccc(-c2cncc(C(F)(F)F)n2)cc1)c1ccnc(NS(=O)(=O)C2CC2)n1 [Example P64],≤ 100 nM,–
COc1cncc(-c2ccc(NC(=O)C(C)(C)c3ccnc(NS(=O)(=O)C4CCC4)n3)cc2)n1 [Example P25],100 to 1000 nM,–
CCOc1cncc(-c2ccc(NC(=O)C(c3ccnc(NS(=O)(=O)C4CC4)n3)C(C)C)c(F)c2)n1 (centres unmarked) [Example P153],≤ 100 nM,–
O=C(Cc1ccnc(NS(=O)(=O)C2CC2)n1)Nc1ccc(-c2cncc(C(F)(F)F)n2)cc1F [Example P11],≤ 100 nM,–
O=C(Cc1cccc(NS(=O)(=O)C2CC2)n1)Nc1ccc(-c2cccnc2)cc1 [Example P171],1000 to 10000 nM,–
O=C(Cc1cccc(NS(=O)(=O)C2CC2)n1)Nc1ccc(-c2cncc(Cl)c2)cc1 [Example P167],100 to 1000 nM,–
CCC(C(=O)Nc1ccc(-c2cncc(OCC(F)(F)F)n2)cn1)c1ccnc(NS(=O)(=O)C2CC2)n1 (centres unmarked) [Example P157],≤ 100 nM,–
CCOc1cncc(-c2ccc(C(=O)NC3(c4ccnc(NS(=O)(=O)C5CC5)n4)CC3)c(F)c2)n1 [Example P209],100 to 1000 nM,–
CCC(C(=O)Nc1ccc(-c2cncc(Cl)c2)cn1)c1ccnc(NS(=O)(=O)C2CC2)n1 (centres unmarked) [Example P148],≤ 100 nM,–
CCOc1cncc(-c2cc(OC)c(NC(=O)C(C)(C)c3ccnc(NS(=O)(=O)C4CC4)n3)cc2F)n1 [Example P48],100 to 1000 nM,–
"CCOc1cncc(-c2ccc(CNC(CC)c3ccnc(NS(=O)(=O)C4CC4)n3)c(F)c2)n1 (centres unmarked) [Example P235, N-(4-(1-((4-(6-Ethoxypyrazin-2-yl)-2-fluorobenzyl)amino)propyl)pyrimidin-2-yl)cyclopropanesulfonamide]",–,100 to 1000 nM
CC(C)(C(=O)Nc1ccc(-c2cncc(C#N)c2)cc1)c1ccnc(NS(=O)(=O)C2CC2)n1 [Example P52],100 to 1000 nM,–
CCOc1cncc(-c2ccc(NC(=O)C(C)(C)c3cc(C)nc(NS(=O)(=O)C4CC4)n3)c(F)c2)n1 [Example P129],100 to 1000 nM,–
CCOc1cncc(-c2ccc(NC(=O)C(C)(C)c3ccnc(NS(=O)(=O)C4CC4)n3)c(Cl)c2)n1 [Example P33],≤ 100 nM,–
O=C(Cc1ccnc(NS(=O)(=O)C2CC2)n1)Nc1ccc(-c2cncc(C(F)(F)F)c2)cc1 [Example P13],100 to 1000 nM,–
CCOc1cncc(-c2ccc(NC(=O)C(C)(C)c3ccnc(NS(=O)(=O)C4CC4)n3)cc2)n1 [Example P65],≤ 100 nM,–

SMILES,IC50 (Table 23),IC50 (Table 24)
CCOc1cncc(-c2ccc(NC(=O)C(CC)(CC)c3ccnc(NS(=O)(=O)C4CC4)n3)cc2)n1 [Example P10],≤ 100 nM,–
"CC(C)(C(=O)Nc1ccc(-c2cncc(C(F)(F)F)c2)cc1)c1ccnc(NS(=O)(=O)C2CC2)n1 [Example P4, 2-(2-(Cyclopropanesulfonamido)pyrimidin-4-yl)-2-methyl-N-(4-(5-(trifluoromethyl)pyridin-3-yl)phenyl)propanamide]",100 to 1000 nM,–
CC(C)(C(=O)Nc1ccc(-c2cccc(Cl)c2)cc1)c1ccnc(NS(=O)(=O)C2CC2)n1 [Example P61],1000 to 10000 nM,–
CC(C)Oc1cncc(-c2ccc(NC(=O)C(C)(C)c3ccnc(NS(=O)(=O)C4CCC4)n3)c(F)c2)n1 [Example P23],100 to 1000 nM,–
CCOc1cncc(-c2cc(F)c(NC(=O)C(C)(C)c3ccnc(NS(=O)(=O)C4CC4)n3)c(F)c2)n1 [Example P41],≤ 100 nM,–
O=C(Cc1cncc(NS(=O)(=O)C2CC2)n1)Nc1ccc(-c2cccnc2)cc1 [Example P192],1000 to 10000 nM,–
CCOc1cncc(-c2ccc(NC(=O)C(c3ccnc(NS(=O)(=O)C4CC4)n3)C(C)C)nc2)n1 (centres unmarked) [Example P154],≤ 100 nM,–
O=C(Cc1nc(NS(=O)(=O)C2CC2)ncc1F)Nc1ccc(-c2cccnc2)cc1 [Example P15],1000 to 10000 nM,–
CCOc1cncc(-c2ccc(NC(=O)C(C)(C)c3ccnc(NS(=O)(=O)C4CC4)n3)nc2)c1 [Example P28],100 to 1000 nM,–
CC(C)Oc1cncc(-c2ccc(NC(=O)C(C)(C)c3ccnc(NS(=O)(=O)C4CC4)n3)cc2)c1 [Example P58],100 to 1000 nM,–
CCOc1cncc(-c2ccc(NC(=O)C(C)(C)c3ccnc(NS(=O)(=O)C4CCC4)n3)cc2)n1 [Example P26],100 to 1000 nM,–
CC(C)(C(=O)Nc1ccc(-c2cncc(C(F)(F)F)n2)cc1F)c1ccnc(NS(=O)(=O)C2CC2)n1 [Example P37],≤ 100 nM,–
CCOc1cncc(-c2ccc(NC(=O)C3(c4ccnc(NS(=O)(=O)C5CC5)n4)CCC(OC)CC3)nc2)n1 (centres unmarked) [Example P260],–,≤ 100 nM
CCOc1cncc(-c2ccc(NC(=O)C(C)(C)c3ccnc(NS(=O)(=O)C4CC4)n3)cc2)c1 [Example P57],100 to 1000 nM,–
CCOc1cncc(-c2ccc(CNC3(c4ccnc(NS(=O)(=O)C5CC5)n4)CC3)nc2)n1 [Example P254],–,100 to 1000 nM
"CC(C)c1cncc(-c2ccc(NC(=O)C(C)(C)c3ccnc(NS(=O)(=O)C4CC4)n3)nc2)n1 [Example P116, 2-(2-(Cyclopropanesulfonamido)pyrimidin-4-yl)-N-(5-(6-isopropylpyrazin-2-yl)pyridin-2-yl)-2-methylpropanamide]",100 to 1000 nM,–
CCOc1cncc(-c2ccc(NC(=O)C(C)(C)c3ccnc(NS(=O)(=O)C(C)(C)C)n3)cc2)n1 [Example P82],1000 to 10000 nM,–
CC(C)(C(=O)Nc1ccc(-c2cncc(OC(F)F)c2)cc1)c1ccnc(NS(=O)(=O)C2CC2)n1 [Example P55],≤ 100 nM,–
Cc1cc(-c2cncc(C(F)(F)F)n2)ccc1NC(=O)C(C)(C)c1ccnc(NS(=O)(=O)C2CC2)n1 [Example P43],100 to 1000 nM,–
O=C(Cc1cccc(NS(=O)(=O)C2CC2)n1)Nc1ccc(-c2cncc(C(F)(F)F)n2)cc1 [Example P172],100 to 1000 nM,–
CCS(=O)(=O)Nc1nccc(C(C)(C)C(=O)Nc2ccc(-c3cncc(C(F)(F)F)n3)cc2)n1 [Example P73],100 to 1000 nM,–
O=C(Cc1ccnc(NS(=O)(=O)C2CC2)n1)Nc1ccc(-c2cncc(OCC(F)(F)F)c2)cc1 [Example P14],100 to 1000 nM,–
CC(C)(C(=O)Nc1ccc(-c2cncc(OC3CC3)n2)cc1)c1ccnc(NS(=O)(=O)C2CC2)n1 [Example P66],100 to 1000 nM,–
O=C(Cc1cccc(NS(=O)(=O)C2CC2)n1)Nc1ccc(-c2cncc(F)c2)cc1 [Example P169],100 to 1000 nM,–
CCOc1cncc(-c2cnc(NC(=O)C(CCOC)c3ccnc(NS(=O)(=O)C4CC4)n3)c(F)c2)n1 (centres unmarked) [Example P144],≤ 100 nM,–
